The values that follow come from ChEMBL document CHEMBL1150554, “Synthesis and activity of spiroisoindolines as novel noncompetitive NMDA antagonists” (Bioorg Med Chem Lett, 1993).

Active and inactive are the calls of the source. No cut-off for these calls is given here.

One experiment has as its target Glutamate NMDA receptor. The experiment in a line: Inhibition of [3H]-TCP binding to NMDA receptors on rat brain membranes. It counts as cell membranes, Membrane.
The subject of experiment [1] is Mus musculus. Description: Compound was tested at a dose of 20-40mg/Kg, ip; produced effects such as body rolling, ataxia and hyperlocomotion. It counts as functional, organism-based.
The test system of experiment [2] is Mus musculus. The experiment in a line: Tested in vivo for the antagonistic activity after 0.4 ug/mouse of NMDA intracerebral administration in mice. It counts as functional. To be noted: central.
In a further experiment the test system is Rattus norvegicus. The experiment in a line: Tested […] for the NMDA-induced cytotoxicity at a concentration of 100 uM in rat cortical cell cultures. It counts as functional.
Experiment [3] relates to Gerbillinae. Description: Tested for the percent reduction in CA1 damage of the hippocampus (gerbil ischemia-induced cell death) after 60 mg/kg intraperitoneal administration,45 min pre and 5 min post ischemia event. In kind it is functional.
The test system of experiment [4] is Mus musculus. Description: Compound was tested up to a dose of 80mg/Kg, ip; did not produce effects such as body rolling, ataxia and hyperlocomotion. It counts as functional, organism-based.
For experiment [5], the system named is Gerbillinae. The experiment in a line: Tested for the percent protection from CA1 damage of the hippocampus (gerbil ischemia-induced cell death) after 1 mg/kg intraperitoneal administration, 45 min pre and 5 min post ischemia event. It counts as functional.
In experiment [6] the test system is Mus musculus. The experiment in a line: Compound was tested at a dose of 0.5-1mg/Kg, ip; produced effects such as body rolling, ataxia and hyperlocomotion. In kind it is functional, organism-based.

With `CN1Cc2ccccc2C12CCc1ccccc12` (centres undefined), the IC50 (in general, the concentration at which inhibition is half-maximal) on Glutamate NMDA receptor turned out to be 65 nM. Still for that read-out and setting: the figure for `CCCN1Cc2ccc(OC)cc2C12CCCCc1ccccc12` (centres undefined) is 17000 nM; for `CN1Cc2ccccc2C12CCCCc1ccccc12` (centres undefined) it is 1700 nM. On Glutamate NMDA receptor, `CCCN1Cc2ccccc2C12CCCc1sccc12` (centres undefined) yielded an IC50 of 1500 nM. The same measure, in the same setting: the result for `COc1cccc2c1CCC21NCc2ccccc21` (centres undefined) reads 5000 nM; that for `CN1Cc2ccc(O)cc2C12CCCCc1ccccc12` (centres undefined), 160 nM; that for `CN1Cc2ccccc2C12CCCc1ccccc12` (centres undefined), 1500 nM. On the same count and under the same terms, the result for `COc1ccc2c(c1)C1(CCCc3ccccc31)NC2` (centres undefined) reads 4000 nM; that for `c1ccc2c(c1)CCCC21NCc2ccccc21` (centres undefined), 890 nM; that for `COc1ccc2c(c1)C1(CCCc3ccccc31)N(C)C2` (centres undefined), 790 nM. On the same count and under the same terms, the result for `Oc1cccc2c1CCC21NCc2ccccc21` (centres undefined) reads 730 nM. As for `c1ccc2c(c1)CCC21NCc2ccccc21` (centres undefined), at Glutamate NMDA receptor, the IC50 turned out to be 980 nM. Besides, the result in the experiment on Mus musculus [1] was Active. On Glutamate NMDA receptor, `COc1ccc2c(c1)C1(CCCCc3ccccc31)N(C)C2` (centres undefined) had an IC50 of 2700 nM. `CN1Cc2ccccc2C12CCCc1sccc12.O=C(O)C(=O)O` (centres undefined) showed an IC50 at Glutamate NMDA receptor of 490 nM. Further, the ED50 – broadly, the dose that gives a 50% effect, or the effect in half of the subjects – in the experiment on Mus musculus [2] worked out at 32 mg/kg. In the experiment with Rattus norvegicus, this compound yielded a Protection of 68%. The compound also yielded a Reduction in the experiment on Gerbillinae [3] of 84%. For the same compound, the outcome with Mus musculus [4] was inactive. `CN1Cc2ccc(O)cc2C12CCCc1ccccc12` (centres undefined) gave an IC50 on Glutamate NMDA receptor of 200 nM.

Consider `CCCN1Cc2ccccc2C12CCCCc1ccccc12` (centres undefined), for which the IC50 at Glutamate NMDA receptor is 17000 nM. This IC50 lies about 85-fold higher than the previous one.

In turn, `COc1ccc2c(c1)C1(CCCCc3ccccc31)NC2` (centres undefined) registered an IC50 at Glutamate NMDA receptor of 4800 nM. This IC50 lies about 3.5-fold lower than the previous one.

The compound `c1ccc2c(c1)CNC21CCCc2sccc21` (centres undefined) came in with an IC50 on Glutamate NMDA receptor of 600 nM.

`CCCN1Cc2ccccc2C12CCc1ccccc12` (centres undefined) had an IC50 on Glutamate NMDA receptor of 440 nM. In the experiment with Gerbillinae [5], `C[C@]12N[C@H](Cc3ccccc31)c1ccccc12.Cl` [DIZOCILPINE HYDROCHLORIDE] had a Protection of 42%. Moreover, in the experiment on Mus musculus [6], the outcome was Active. In the case of `CCCN1Cc2ccccc2C12CCCc1ccccc12` (centres undefined), the IC50 at Glutamate NMDA receptor was 1600 nM. The same measure, in the same setting: the result for `Oc1ccc2c(c1)C1(CCCc3ccccc31)NC2` (centres undefined) reads 240 nM; that for `c1ccc2c(c1)CCCCC21NCc2ccccc21` (centres undefined), 1700 nM.
